Data reported in PubChem BioAssay (NCI).
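1) Cells in 96-well plates. 2) Compound, 48 h, 5 concentrations. 3) Linear interpolation between surrounding doses. 4) Unreached endpoint = highest concentration. TGI marks complete inhibition of growth.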

Tests used:
Test in all cases: growth of human tumour cells (NCI), 48 h
A549 NSCLC = tested on: A549 NSCLC
M14 melanoma = tested on: M14 melanoma
T-47D breast = tested on: T-47D breast
HCT-15 colon = tested on: HCT-15 colon
DU-145 prostate = tested on: DU-145 prostate
HOP-92 NSCLC = tested on: HOP-92 NSCLC
CCRF-CEM leukemia = tested on: CCRF-CEM leukemia
SF-295 CNS = tested on: SF-295 CNS
HCC-2998 colon = tested on: HCC-2998 colon
MOLT-4 leukemia = tested on: MOLT-4 leukemia
HOP-62 NSCLC = tested on: HOP-62 NSCLC
IGROV1 ovarian = tested on: IGROV1 ovarian
SK-MEL-5 melanoma = tested on: SK-MEL-5 melanoma
SW-620 colon = tested on: SW-620 colon
SF-268 CNS = tested on: SF-268 CNS
UACC-62 melanoma = tested on: UACC-62 melanoma
786-0 renal = tested on: 786-0 renal
MALME-3M melanoma = tested on: MALME-3M melanoma
HT29 colon = tested on: HT29 colon
MDA-MB-435 = tested on: MDA-MB-435
HL-60(TB) leukemia = tested on: HL-60(TB) leukemia
OVCAR-8 ovarian = tested on: OVCAR-8 ovarian
COLO 205 colon = tested on: COLO 205 colon
K-562 leukemia = tested on: K-562 leukemia
KM12 colon = tested on: KM12 colon
CAKI-1 renal = tested on: CAKI-1 renal
SN12C renal = tested on: SN12C renal
MCF7 breast = tested on: MCF7 breast
SR leukemia = tested on: SR leukemia
SK-OV-3 ovarian = tested on: SK-OV-3 ovarian
UACC-257 melanoma = tested on: UACC-257 melanoma
LOX IMVI melanoma = tested on: LOX IMVI melanoma
RXF 393 renal = tested on: RXF 393 renal
MDA-N = tested on: MDA-N
SNB-75 CNS = tested on: SNB-75 CNS
SK-MEL-28 melanoma = tested on: SK-MEL-28 melanoma
OVCAR-4 ovarian = tested on: OVCAR-4 ovarian
NCI-H23 lung = tested on: NCI-H23 lung
RPMI-8226 leukemia = tested on: RPMI-8226 leukemia
EKVX NSCLC = tested on: EKVX NSCLC
PC-3 prostate = tested on: PC-3 prostate
TK-10 renal = tested on: TK-10 renal
MDA-MB-231 breast = tested on: MDA-MB-231 breast
OVCAR-3 ovarian = tested on: OVCAR-3 ovarian
NCI/ADR-RES ovarian = tested on: NCI/ADR-RES ovarian
NCI-H522 lung = tested on: NCI-H522 lung
U251 CNS = tested on: U251 CNS
NCI-H226 lung = tested on: NCI-H226 lung
BT-549 breast = tested on: BT-549 breast
ACHN renal = tested on: ACHN renal
SNB-19 CNS = tested on: SNB-19 CNS
HS 578T breast = tested on: HS 578T breast
UO-31 renal = tested on: UO-31 renal
SF-539 CNS = tested on: SF-539 CNS
NCI-H460 lung = tested on: NCI-H460 lung
A498 renal = tested on: A498 renal
HCT-116 colon = tested on: HCT-116 colon
OVCAR-5 ovarian = tested on: OVCAR-5 ovarian
SK-MEL-2 melanoma = tested on: SK-MEL-2 melanoma

`c1csc(-c2sc(-c3ccsc3)cc2Cc2ccsc2)c1` was tested, and the TGI (A549 NSCLC) was greater than 10 µM, the TGI (M14 melanoma) was greater than 10 µM and the TGI (T-47D breast) was greater than 10 µM. The TGI (HCT-15 colon) was greater than 10 µM, the TGI (DU-145 prostate) was greater than 10 µM and the TGI (HOP-92 NSCLC) was greater than 10 µM. It also gave a TGI (CCRF-CEM leukemia) greater than 10 µM, a TGI (SF-295 CNS) greater than 10 µM and a TGI (HCC-2998 colon) greater than 10 µM. It also gave a TGI (MOLT-4 leukemia) greater than 10 µM, a TGI (HOP-62 NSCLC) greater than 10 µM and a TGI (IGROV1 ovarian) greater than 10 µM. For the same molecule, the TGI (SK-MEL-5 melanoma) was greater than 10 µM, the TGI (SW-620 colon) was greater than 10 µM and the TGI (SF-268 CNS) was greater than 10 µM. For the same molecule, the TGI (UACC-62 melanoma) was greater than 10 µM, the TGI (786-0 renal) was greater than 10 µM and the TGI (MALME-3M melanoma) was greater than 10 µM. For the same molecule, the TGI (HT29 colon) was greater than 10 µM, the TGI (MDA-MB-435) was greater than 10 µM and the TGI (HL-60(TB) leukemia) was greater than 10 µM. For the same molecule, the TGI (OVCAR-8 ovarian) was greater than 10 µM, the TGI (COLO 205 colon) was greater than 10 µM and the TGI (K-562 leukemia) was greater than 10 µM. It also gave a TGI (KM12 colon) greater than 10 µM, a TGI (CAKI-1 renal) greater than 10 µM and a TGI (SN12C renal) greater than 10 µM. The TGI (MCF7 breast) was greater than 10 µM, the TGI (SR leukemia) was greater than 10 µM and the TGI (SK-OV-3 ovarian) was greater than 10 µM. It also gave a TGI (UACC-257 melanoma) greater than 10 µM, a TGI (LOX IMVI melanoma) greater than 10 µM and a TGI (RXF 393 renal) greater than 10 µM. It also gave a TGI (MDA-N) greater than 10 µM, a TGI (SNB-75 CNS) greater than 10 µM and a TGI (SK-MEL-28 melanoma) greater than 10 µM. It also gave a TGI (OVCAR-4 ovarian) greater than 10 µM, a TGI (NCI-H23 lung) greater than 10 µM and a TGI (RPMI-8226 leukemia) greater than 10 µM. The TGI (EKVX NSCLC) was greater than 10 µM, the TGI (PC-3 prostate) was greater than 10 µM and the TGI (TK-10 renal) was greater than 10 µM. It also gave a TGI (MDA-MB-231 breast) greater than 10 µM.
`Nc1cccc(/C=C/CN2CCN(CCOC(c3ccccc3)c3ccccc3)CC2)c1` showed a TGI (OVCAR-3 ovarian) of 29.1 µM, a TGI (NCI/ADR-RES ovarian) of 29.5 µM and a TGI (NCI-H522 lung) of 27.7 µM. It also gave a TGI (A549 NSCLC) of 29.7 µM, a TGI (M14 melanoma) of 25.9 µM and a TGI (U251 CNS) of 30.5 µM. It also gave a TGI (T-47D breast) of 26 µM, a TGI (HCT-15 colon) of 26.1 µM and a TGI (DU-145 prostate) of 26.4 µM. For the same molecule, the TGI (HOP-92 NSCLC) was 25.4 µM, the TGI (CCRF-CEM leukemia) was 25.7 µM and the TGI (SF-295 CNS) was 31.4 µM. The TGI (NCI-H226 lung) was 40.4 µM, the TGI (HCC-2998 colon) was 11.9 µM and the TGI (BT-549 breast) was 29.9 µM. It also gave a TGI (MOLT-4 leukemia) of 19.2 µM, a TGI (ACHN renal) of 32.2 µM and a TGI (HOP-62 NSCLC) of 26.9 µM. The TGI (IGROV1 ovarian) was 30.1 µM, the TGI (SK-MEL-5 melanoma) was 26.8 µM and the TGI (SW-620 colon) was 33.9 µM. The TGI (SNB-19 CNS) was 30.7 µM, the TGI (SF-268 CNS) was 35.7 µM and the TGI (UACC-62 melanoma) was 31.7 µM. For the same molecule, the TGI (786-0 renal) was 30.5 µM, the TGI (MALME-3M melanoma) was 34.7 µM and the TGI (HT29 colon) was 13.1 µM. For the same molecule, the TGI (MDA-MB-435) was 28.1 µM, the TGI (HL-60(TB) leukemia) was 22.9 µM and the TGI (OVCAR-8 ovarian) was 30.1 µM. It also gave a TGI (HS 578T breast) of 48 µM, a TGI (UO-31 renal) of 27.4 µM and a TGI (SF-539 CNS) of 31.7 µM. It also gave a TGI (COLO 205 colon) of 20.9 µM, a TGI (K-562 leukemia) of 16.3 µM and a TGI (KM12 colon) of 25.4 µM. It also gave a TGI (CAKI-1 renal) of 34.1 µM, a TGI (SN12C renal) of 36 µM and a TGI (NCI-H460 lung) of 27.7 µM. It also gave a TGI (A498 renal) of 32.5 µM, a TGI (HCT-116 colon) of 25.4 µM and a TGI (MCF7 breast) of 29.4 µM. For the same molecule, the TGI (SR leukemia) was 17.4 µM, the TGI (SK-OV-3 ovarian) was 27 µM and the TGI (UACC-257 melanoma) was 31.1 µM. The TGI (LOX IMVI melanoma) was 28.9 µM, the TGI (RXF 393 renal) was 25.5 µM and the TGI (SNB-75 CNS) was 22.7 µM. For the same molecule, the TGI (SK-MEL-28 melanoma) was 27.1 µM, the TGI (OVCAR-4 ovarian) was 27.7 µM and the TGI (NCI-H23 lung) was 30.7 µM. For the same molecule, the TGI (OVCAR-5 ovarian) was 30.5 µM, the TGI (RPMI-8226 leukemia) was 15.2 µM and the TGI (EKVX NSCLC) was 32 µM. The TGI (SK-MEL-2 melanoma) was 33.6 µM, the TGI (PC-3 prostate) was 30 µM and the TGI (TK-10 renal) was 29.6 µM. It also gave a TGI (MDA-MB-231 breast) of 30.3 µM.
